Measurements reported in PubChem BioAssay AID1963852 (Molecular Pharmacology Branch, DTP, NCI, 2024).
pIC50: −log10 of the molar value. Several values for one entry are separate records, joined by “and”; a condition that tells them apart may be missing. Identical values can stand only once.

Test system: 282377-053-R-J1-PDC complex spheroid viability
Experiment: Anticancer human tumor 282377-053-R-J1-PDC patient-derived colon adenocarcinoma cell line growth inhibition [POLQ]
Details: for viability, T/C: stronger effect = lower value; active means viability on the fitted dose curve at most 10% of control; inactive means the rest
Method: Multicellular complex tumor spheroid response to Polymerase (POL) inhibitors (novobiocin, ART-558, RP6685) in combination with a variety of drugs and investigational agents in selected tumor cell lines
The POL inhibitors (novobiocin, ART-558, and RP6685) were evaluated both individually and in combination with standard of care and investigational anticancer small molecules within a complex spheroid model of solid tumors. . Complex spheroids include a stromal component modeled by human endothelial cells (HUVEC) and fibroblasts modeled by human mesenchymal stem cells (MSCs). The concentration ranges selected for each drug and investigational agent were based upon clinically achievable concentrations if the clinical Cmax of the agent was known.
Compounds. The drugs and investigational agents: novobiocin (NSC847541), ART-558 (NSC835418), RP-6685 (NSC848927), peposertib (NSC802822), ceralasertib (NSC780249), elimusertib (NSC800525), camonsertib (NSC841442), AZD-1390 (NSC803789), olaparib (NSC753686), talazoparib (NSC767125), rucaparib (NSC756644), sotorasib (NSC818433), MRTX-1133 (NSC836407), SN-38 (NSC673596), topotecan (NSC609699), epotoside (NSC141540), doxorubicin (NSC123127), gemcitabine (NSC613327), 5-fluorouracil (NSC19893), paclitaxel (NSC125973), vemurafenib (NSC761431), MSA-2 (NSC828583), SN-011 (NSC837082), adavosertib (NSC754352), prexasertib (NSC758257), carboplatin (NSC241240) and oxaliplatin (NSC266046), were obtained from the National Cancer Institute (NCI) Developmental Therapeutics Program Chemical Repository (21). The FDA-approved anticancer drug set is available from the Developmental Therapeutics Program at https://dtp.cancer.gov/organization/dscb/obtaining/. […] The stock solutions were prepared in dimethyl sulfoxide (DMSO, Sigma-Aldrich, St. Louis, MO, cat. D2650), except for the platinum compounds which were prepared in saline (Quality Biological, Gaithersburg, MD, cat. 114-055-101), at 800-fold the tested concentration and stored at -70 degrees C prior to their use. All drugs and investigational agents were tested over a range starting from a high concentration at or near the clinical Cmax and decreasing in half-log increments. If the clinical Cmax for an agent had not been determined, the highest concentration tested was 10 microM, except for SN-38, which was tested at a high concentration of 1 microM.
Cell Culture. All cells were maintained in an incubator at 37 degrees C and 5% CO2 with 95% humidity. The PDC lines were cultured according to standard operating procedures established by the NCI PDMR (https://pdmr.cancer.gov). Table 3 of the manuscript, lists the cell lines along with the number of the three cell types plated to form the mct-spheroids and media for tumor cell growth. After thawing, all PDC lines, except 997537-175-T-J1-PDC and 415267-285-R-J2-PDC, were cultured in Matrigel-coated flasks prepared with a working solution of 1X Ham's F-12 nutrient mix, without supplementation (Thermo Fisher Scientific, cat. 11765054), 100 U/mL penicillin-streptomycin (Thermo Fisher Scientific, cat. 15140122), and 2.5% Matrigel (Corning Inc., Corning, NY, cat. 354248) for the first three passages. The two PDC lines 997537-175-T-J1-PDC and 415267-285-R-J2-PDC were cultured on uncoated flasks. The 857933-349-R-J2-PDC line was cultured in 6C/Colon 1B media containing advanced DMEM/F-12 (Thermo Fisher Scientific, cat. 12634028), 10 mM HEPES (Thermo Fisher Scientific, cat. 15630080), 1X GlutaMAX supplement (Thermo Fisher Scientific, cat. 35050061), 0.1 mg/mL primocin (InvivoGen, San Diego, CA, cat. ant-pm-2), 10% defined fetal bovine serum, heat inactivated (HyClone Laboratories Inc., Logan, UT, cat. SH30070.03HI), 50% L-WRN conditioned media (ATCC, cat. CRL-3276), 1.25 mM N-Acetyl-L-cysteine (Sigma-Aldrich, cat. A9165), 10 mM nicotinamide (Sigma-Aldrich, cat. N0636), 1X B-27 supplement (Thermo Fisher Scientific, cat. 17504044), 1X N-2 supplement (Thermo Fisher Scientific, cat. […]
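Further: spheroids exposed to compounds for seven days.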

Cc1cccc(N(C)C(=O)C2C(O)CCN2c2nc(C)cc(C(F)(F)F)c2C#N)c1 (stereo not given)
inactive: viability, T/C (compound 0.1 µM) 105% [middle of 13 runs]
< 5.00: pIC50 (compound alone, run of 10/31/2023) | pIC50 (compound alone, run of 11/06/2023)

C#Cc1c(F)ccc2cc(O)cc(-c3ncc4c(N5CC6CCC(C5)N6)nc(OCC56CCCN5CC(F)C6)nc4c3F)c12 (stereo not given)
< 5.00: pIC50 (curve of compound)
inactive: viability, T/C (compound 0.0316 µM) 64.6% and 97.7% and 80.6% | viability, T/C (compound 0.1 µM) 88.7% and 85.6% and 110% | viability, T/C (compound 0.316 µM) 112% and 102% and 114% | viability, T/C (compound 1 µM) 99.1% and 101% and 114% | viability, T/C (compound 3.16 µM) 84% and 93.9% and 105% | viability, T/C (compound 10 µM) 74.8% and 83.1% and 86.3%

C=CCn1c(=O)c2cnc(Nc3ccc(N4CCN(C)CC4)cc3)nc2n1-c1cccc(C(C)(C)O)n1
< 6.00: pIC50 (curve of compound)
inactive: viability, T/C (compound 0.00316 µM) 107% (2×) and 111% | viability, T/C (compound 0.01 µM) 119% and 95.2% and 85.9% | viability, T/C (compound 0.0316 µM) 98% and 116% and 91.7% | viability, T/C (compound 0.1 µM) 103% and 95.6% and 93.7% | viability, T/C (compound 0.316 µM) 109% and 85.2% and 82.7% | viability, T/C (compound 1 µM) 81.5% and 87.5% and 68.1%

COc1cccc(OCCCN)c1-c1cc(Nc2cnc(C#N)cn2)n[nH]1
inactive: viability, T/C (compound 0.00316 µM) 107% and 99.4% and 101% | viability, T/C (compound 0.01 µM) 94.1% and 89.1% and 85.9% | viability, T/C (compound 0.0316 µM) 76.9% and 82.1% and 72.1% | viability, T/C (compound 0.1 µM) 49.5% and 74.7% and 75.6% | viability, T/C (compound 0.316 µM) 37.2% and 63.1% and 52.5% | viability, T/C (compound 1 µM) 26.8% and 44% and 43.3%
6.95 and 6.14 and 6.27: pIC50 (curve of compound)

CC(C)n1c(=O)n(C)c2cnc3cc(F)c(-c4ccc(OCCCN5CCCCC5)nc4)cc3c21
< 5.00: pIC50 (curve of compound)
inactive: viability, T/C (compound 0.0316 µM) 103% and 107% and 118% | viability, T/C (compound 0.1 µM) 133% and 106% and 113% | viability, T/C (compound 0.316 µM) 104% and 103% and 109% | viability, T/C (compound 1 µM) 103% and 118% and 107% | viability, T/C (compound 3.16 µM) 104% and 114% and 103% | viability, T/C (compound 10 µM) 104% and 108% and 105%

CCCS(=O)(=O)Nc1ccc(F)c(C(=O)c2c[nH]c3ncc(-c4ccc(Cl)cc4)cc23)c1F
< 5.00 and 5.47: pIC50 (curve of compound)
inactive: viability, T/C (compound 0.0316 µM) 93.1% and 82.2% and 78.1% | viability, T/C (compound 0.1 µM) 85.3% and 76.1% and 69.5% | viability, T/C (compound 0.316 µM) 85.1% and 71% and 76.2% | viability, T/C (compound 1 µM) 72% and 64.2% and 46.1% | viability, T/C (compound 3.16 µM) 68.8% and 63.2% and 64.1% | viability, T/C (compound 10 µM) 69.5% and 72.5% and 26.7%

CC(C)n1c(=O)n(C)c2cnc3cc(F)c(-c4ccc(OCCCN5CCCCC5)nc4)cc3c21 + Nc1ccc(C#CCN(C(=O)Cc2ncc(C(F)(F)F)cc2C(F)(F)F)c2ccc(F)cc2)nn1
inactive: viability, T/C (second compound 0.0316 µM, first compound 0.0316 µM) 101% | viability, T/C (second compound 0.0316 µM, first compound 0.1 µM) 105% | viability, T/C (second compound 0.0316 µM, first compound 0.316 µM) 107% | viability, T/C (second compound 0.0316 µM, first compound 1 µM) 103% | viability, T/C (second compound 0.0316 µM, first compound 3.16 µM) 110% | viability, T/C (second compound 0.0316 µM, first compound 10 µM) 92.7% | viability, T/C (second compound 0.1 µM, first compound 0.0316 µM) 117% | viability, T/C (second compound 0.1 µM, first compound 0.1 µM) 113% | viability, T/C (second compound 0.1 µM, first compound 0.316 µM) 108% | viability, T/C (second compound 0.1 µM, first compound 1 µM) 108% | viability, T/C (second compound 0.1 µM, first compound 3.16 µM) 97.2% | viability, T/C (second compound 0.1 µM, first compound 10 µM) 101% | viability, T/C (second compound 0.316 µM, first compound 0.0316 µM) 111% | viability, T/C (second compound 0.316 µM, first compound 0.1 µM) 91.5% | viability, T/C (second compound 0.316 µM, first compound 0.316 µM) 109% | viability, T/C (second compound 0.316 µM, first compound 1 µM) 104% | viability, T/C (second compound 0.316 µM, first compound 3.16 µM) 106% | viability, T/C (second compound 0.316 µM, first compound 10 µM) 94.5% | viability, T/C (second compound 1 µM, first compound 0.0316 µM) 116% | viability, T/C (second compound 1 µM, first compound 0.1 µM) 105% | viability, T/C (second compound 1 µM, first compound 0.316 µM) 103% | viability, T/C (second compound 1 µM, first compound 1 µM) 112% | viability, T/C (second compound 1 µM, first compound 3.16 µM) 118% | viability, T/C (second compound 1 µM, first compound 10 µM) 102% | viability, T/C (second compound 3.16 µM, first compound 0.0316 µM) 105% | viability, T/C (second compound 3.16 µM, first compound 0.1 µM) 106% | viability, T/C (second compound 3.16 µM, first compound 0.316 µM) 103% | viability, T/C (second compound 3.16 µM, first compound 1 µM) 115% | viability, T/C (second compound 3.16 µM, first compound 3.16 µM) 108% | viability, T/C (second compound 3.16 µM, first compound 10 µM) 111% | viability, T/C (second compound 10 µM, first compound 0.0316 µM) 121% | viability, T/C (second compound 10 µM, first compound 0.1 µM) 119% | viability, T/C (second compound 10 µM, first compound 0.316 µM) 114% | viability, T/C (second compound 10 µM, first compound 1 µM) 128% | viability, T/C (second compound 10 µM, first compound 3.16 µM) 127% | viability, T/C (second compound 10 µM, first compound 10 µM) 122%
< 5.00: pIC50 (curve of first compound, second compound 0.0316 µM) | pIC50 (curve of first compound, second compound 0.1 µM) | pIC50 (curve of first compound, second compound 0.316 µM) | pIC50 (curve of first compound, second compound 1 µM) | pIC50 (curve of first compound, second compound 3.16 µM) | pIC50 (curve of first compound, second compound 10 µM)
